Measurements: US20100172991A1, “Extended Release Formulation and Methods of Treating Adrenergic Dysregulation” (priority 2007, published 2010)
≈ marks a conversion by molar mass, not a printed value. Where two headings read alike, the source gives them in different places.

Columns and labels:
[1] = traditional oral formulation; cited from earlier work
[2] = tested on: systolic and diastolic blood pressure; experiment: animal or person
Protocol: Mean baseline ABPM data for the three treatment groups were compared with mean data obtained on Day 26 (last day of treatment) and on Days 27 and 28. A more detailed PK/PD analysis was conducted by using the individual patient ABPM data to compare the blood pressure profile at Baseline and on Day 26 of treatment. The daytime (0- to 12-hour) intervals were used in the analysis, since pharmacokinetic data were collected on Day 25, over the daytime 12-hour dosing interval at steady state. In order to investigate the maintenance of effect at the tail end of the inter-dosing interval, differences between the SBP, DBP, and HR values at Baseline and the last two hours in the inter-dosing interval (Hours 11 and 12) on Day 26 were calculated for each patient. Paired t-tests were performed to test the significance of these differences between Baseline and the last two measuring times. The approach taken to quantify the effects of clonidine on blood pressure was to calculate the difference between the areas under the BP vs. time curves (AUCBP) at Baseline and on Day 26. These values were used to relate the pharmacodynamic effect to dose, as well as to conduct the PK/PD analyses.
Pharmacokinetic-pharmacodynamic modeling was conducted using the blood pressure response data and the Cmax, Cmin and AUCτ values at Day 25 of dosing. […] The data in Table 8 summarize the PK/PD parameters from the sigmoidal Emax model.

[3] = sigmoidal Emax model, Day 25 exposure

## Clc1cccc(Cl)c1NC1=NCCN1 [clonidine, 2,6-dichloro-N-2-imidazolidinylidene benzeneamine]
[1]
  biological half-life: four to six
[2]; Homo sapiens, 600 h, read-out: EC50, Diastolic BP vs Cmax
  EC50: 0.431 ng/mL (≈ 1.87 nM)
[2]; Homo sapiens, 600 h, read-out: EC50, Diastolic BP vs Cmin
  EC50: 0.341 ng/mL (≈ 1.48 nM)
[2]; Homo sapiens, 600 h, read-out: EC50, Systolic BP vs Cmax
  EC50: 0.458 ng/mL (≈ 1.99 nM)
[2]; Homo sapiens, 600 h, read-out: EC50, Systolic BP vs Cmin
  EC50: 0.359 ng/mL (≈ 1.56 nM)
[2]; Homo sapiens, 600 h, read-out: EC90, Diastolic BP vs AUCτ
  EC90: 5.92 ng/mL (≈ 25.7 nM)
[2]; [3]
  Emax (ΔBP), Diastolic BP vs AUCτ: 16.8
  Emax (ΔBP), Diastolic BP vs Cmax: 16.7
  Emax (ΔBP), Diastolic BP vs Cmin: 16.8
  Emax (ΔBP), Systolic BP vs AUCτ: 24.3
  Emax (ΔBP), Systolic BP vs Cmax: 24.3
  Emax (ΔBP), Systolic BP vs Cmin: 24.4
